According to a compilation of properties of binary mixtures (doi:10.1016/j.molliq.2019.111925):

Assay: xn = mol fraction of the nth substance listed
Conditions: 100 kPa

O + CC(=O)[O-].CC[n+]1ccn(C)c1
x2 = 0
Conditions	speed of sound [m/s]
293.15 K	1485
298.15 K	1499
303.15 K	1511
333.15 K	1551
343.15 K	1554

CC(=O)[O-].CC[n+]1ccn(C)c1 + O
Conditions	electrical conductivity [S/m]	speed of sound [m/s]
293.15 K, x1 = 0.105	–	1942
293.15 K, x1 = 0.1988	–	1959
293.15 K, x1 = 0.2003	1.59	–
293.15 K, x1 = 0.3952	0.833	–
293.15 K, x1 = 0.4445	–	1852
293.15 K, x1 = 0.5602	–	1776
293.15 K, x1 = 0.5984	0.49	–
293.15 K, x1 = 0.7375	–	1778
293.15 K, x1 = 0.8521	–	1762
293.15 K, x1 = 0.9481	0.228	–
293.15 K, x2 = 0.0174	–	1753
298.15 K, x1 = 0.4445	–	1839
298.15 K, x1 = 0.5602	–	1764
298.15 K, x1 = 0.7375	–	1765
298.15 K, x1 = 0.8521	–	1749
298.15 K, x1 = 0.9481	0.301	–
298.15 K, x1 = 1	0.299	1740
298.15 K, x2 = 0.0174	–	1740
303.15 K, x1 = 0.105	–	1917
303.15 K, x1 = 0.1988	–	1932
303.15 K, x1 = 0.3952	1.28	–
303.15 K, x1 = 0.4445	–	1827
303.15 K, x1 = 0.5602	–	1753
303.15 K, x1 = 0.5984	0.776	–
303.15 K, x1 = 0.7375	–	1753
303.15 K, x1 = 0.8521	–	1736
303.15 K, x1 = 0.9481	0.392	–
303.15 K, x1 = 1	0.391	1727
303.15 K, x2 = 0.0174	–	1726
313.15 K, x1 = 0.1988	–	1904
313.15 K, x1 = 0.2003	3.32	–
313.15 K, x1 = 0.3952	1.84	–
313.15 K, x1 = 0.4445	–	1803
313.15 K, x1 = 0.5602	–	1729
313.15 K, x1 = 0.5984	1.16	–
313.15 K, x1 = 0.7375	–	1729
313.15 K, x1 = 0.7987	0.819	–
313.15 K, x1 = 0.8521	–	1712
313.15 K, x1 = 0.9481	0.627	–
313.15 K, x1 = 1	0.625	1701
313.15 K, x2 = 0.0174	–	1701
323.15 K, x1 = 0.105	–	1864
323.15 K, x1 = 0.2003	4.45	–
323.15 K, x1 = 0.3952	2.52	–
323.15 K, x1 = 0.4445	–	1779
323.15 K, x1 = 0.5602	–	1707
323.15 K, x1 = 0.7375	–	1705
323.15 K, x1 = 0.7987	1.19	–
323.15 K, x1 = 0.8521	–	1687
323.15 K, x1 = 0.9481	0.934	–
323.15 K, x1 = 1	0.929	1676
323.15 K, x2 = 0.0174	–	1676
333.15 K, x1 = 0.105	–	1846
333.15 K, x1 = 0.1988	–	1848
333.15 K, x1 = 0.2003	5.75	–
333.15 K, x1 = 0.3952	3.32	–
333.15 K, x1 = 0.5602	–	1690
333.15 K, x1 = 0.5984	2.19	–
333.15 K, x1 = 0.7375	–	1682
333.15 K, x1 = 0.7987	1.64	–
333.15 K, x1 = 0.8521	–	1664
343.15 K, x1 = 0.105	–	1809
343.15 K, x1 = 0.4445	–	1731
343.15 K, x1 = 0.5602	–	1668
343.15 K, x1 = 0.7375	–	1659
343.15 K, x1 = 0.9481	1.76	–
343.15 K, x2 = 0.0174	–	1629
353.15 K, x1 = 0.9481	2.28	–
353.15 K, x1 = 1	2.28	–
